From patent US20260092071A1, “COMPOUNDS AND COMPOSITIONS AS SMARCA2/4 DEGRADERS AND USES THEREOF” (REGENTS OF THE UNIVERSITY OF MICHIGAN, priority 2022, published 2026) come the findings set out here.

Where two headings read alike, the source gives them in different places.

One assay concerns the target SMARCA2 (Homo sapiens, UniProt P51531). Kind of assay: HiBit assay in engineered HT1080 CRISPR knock-in cell, 6 hrs (B series), SMARCA2. The format is cell-based. As to conditions: 6 hrs incubation; for SMARC A2 HT1080 HiBit Dmax (%) / DC50: HT1080 CRISPR knock-in cells; for DC50: read-out: SMARC A2 HT1080 HiBit DC50; for Dmax: HT-1080, HT1080 CRISPR knock-in cells, read-out: SMARC A2 HT1080 HiBit Dmax (%). In outline:
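Using a 6 hr treatment window at 37° C and 5% CO2, tagged HT1080 knock-in cells were exposed to test compounds with DMSO vehicle held at 0.1%. Signal came from lytic LgBiT/substrate reagent added after incubation, with control wells lacking LgBiT, and was read as luminescence.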

Another assay concerns the target SMARCA4 (Homo sapiens, UniProt P51532). Kind of assay: HiBit assay in engineered HT1080 CRISPR knock-in cell, 6 hrs (B series), SMARCA4. It counts as cell-based. As to conditions: for SMARC A4 HT1080 HiBit Dmax(%) / DC50: HT1080 CRISPR knock-in cells; for DC50: read-out: SMARC A4 HT1080 HiBit DC50. The procedure, abridged:
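Compounds were dispensed first, then HT1080 knock-in cells added and incubated for 6 hrs at 37° C. Next, detection reagent containing LgBiT and lytic substrate was added. Plates were shaken 10 min and centrifuged, and luminescence was measured.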
(In general: The HiBiT peptide binds its large partner to form an active luciferase.)

The mark [1] stands for this setting: HT-1080, HT1080 CRISPR knock-in cells, 6 hrs incubation, read-out: SMARC A4 HT1080 HiBit Dmax(%).

SMARCA4, sequence (P51532 whole entry): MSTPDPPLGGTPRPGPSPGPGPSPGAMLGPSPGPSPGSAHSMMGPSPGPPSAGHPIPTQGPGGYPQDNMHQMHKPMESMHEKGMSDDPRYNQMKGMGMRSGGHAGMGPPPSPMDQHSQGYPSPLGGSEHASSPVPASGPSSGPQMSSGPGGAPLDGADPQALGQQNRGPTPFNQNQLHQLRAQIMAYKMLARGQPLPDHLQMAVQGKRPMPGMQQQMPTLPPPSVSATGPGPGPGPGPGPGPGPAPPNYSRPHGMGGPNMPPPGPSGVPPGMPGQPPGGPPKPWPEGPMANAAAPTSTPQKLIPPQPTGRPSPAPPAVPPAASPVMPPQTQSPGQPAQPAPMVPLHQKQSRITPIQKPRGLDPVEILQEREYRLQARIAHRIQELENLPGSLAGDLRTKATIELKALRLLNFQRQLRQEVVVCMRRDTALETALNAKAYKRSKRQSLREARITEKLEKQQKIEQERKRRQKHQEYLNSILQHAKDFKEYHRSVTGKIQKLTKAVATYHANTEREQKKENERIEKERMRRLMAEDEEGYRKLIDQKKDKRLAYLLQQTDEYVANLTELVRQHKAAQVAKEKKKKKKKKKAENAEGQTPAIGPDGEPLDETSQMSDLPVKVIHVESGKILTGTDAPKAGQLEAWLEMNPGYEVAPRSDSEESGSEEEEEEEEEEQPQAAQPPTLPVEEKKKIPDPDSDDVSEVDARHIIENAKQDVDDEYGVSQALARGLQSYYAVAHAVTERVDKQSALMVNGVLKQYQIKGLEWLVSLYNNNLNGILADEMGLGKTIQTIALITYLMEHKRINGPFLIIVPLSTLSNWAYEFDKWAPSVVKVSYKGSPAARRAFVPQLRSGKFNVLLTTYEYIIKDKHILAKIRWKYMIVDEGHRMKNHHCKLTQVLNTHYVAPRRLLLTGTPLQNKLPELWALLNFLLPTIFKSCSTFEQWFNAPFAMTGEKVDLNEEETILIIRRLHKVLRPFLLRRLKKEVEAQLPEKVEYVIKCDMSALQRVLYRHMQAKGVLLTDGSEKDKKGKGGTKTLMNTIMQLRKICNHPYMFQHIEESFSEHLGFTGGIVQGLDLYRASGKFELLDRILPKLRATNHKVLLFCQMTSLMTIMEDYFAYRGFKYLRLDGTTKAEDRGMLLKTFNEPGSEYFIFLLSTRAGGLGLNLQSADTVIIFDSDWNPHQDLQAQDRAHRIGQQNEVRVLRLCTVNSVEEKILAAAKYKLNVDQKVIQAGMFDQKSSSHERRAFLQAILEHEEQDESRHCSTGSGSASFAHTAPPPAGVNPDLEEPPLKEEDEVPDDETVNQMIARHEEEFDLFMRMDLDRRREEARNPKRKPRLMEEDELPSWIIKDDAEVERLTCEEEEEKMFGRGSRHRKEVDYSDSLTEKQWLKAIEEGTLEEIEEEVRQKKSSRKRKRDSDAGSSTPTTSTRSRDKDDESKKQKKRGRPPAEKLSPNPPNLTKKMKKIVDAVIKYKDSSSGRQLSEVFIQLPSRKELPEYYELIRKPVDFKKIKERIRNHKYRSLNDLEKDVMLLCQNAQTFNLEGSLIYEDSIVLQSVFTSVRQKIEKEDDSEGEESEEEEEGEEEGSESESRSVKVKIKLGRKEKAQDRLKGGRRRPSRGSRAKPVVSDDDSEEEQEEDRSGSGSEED
SMARCA2, sequence (P51531 whole entry): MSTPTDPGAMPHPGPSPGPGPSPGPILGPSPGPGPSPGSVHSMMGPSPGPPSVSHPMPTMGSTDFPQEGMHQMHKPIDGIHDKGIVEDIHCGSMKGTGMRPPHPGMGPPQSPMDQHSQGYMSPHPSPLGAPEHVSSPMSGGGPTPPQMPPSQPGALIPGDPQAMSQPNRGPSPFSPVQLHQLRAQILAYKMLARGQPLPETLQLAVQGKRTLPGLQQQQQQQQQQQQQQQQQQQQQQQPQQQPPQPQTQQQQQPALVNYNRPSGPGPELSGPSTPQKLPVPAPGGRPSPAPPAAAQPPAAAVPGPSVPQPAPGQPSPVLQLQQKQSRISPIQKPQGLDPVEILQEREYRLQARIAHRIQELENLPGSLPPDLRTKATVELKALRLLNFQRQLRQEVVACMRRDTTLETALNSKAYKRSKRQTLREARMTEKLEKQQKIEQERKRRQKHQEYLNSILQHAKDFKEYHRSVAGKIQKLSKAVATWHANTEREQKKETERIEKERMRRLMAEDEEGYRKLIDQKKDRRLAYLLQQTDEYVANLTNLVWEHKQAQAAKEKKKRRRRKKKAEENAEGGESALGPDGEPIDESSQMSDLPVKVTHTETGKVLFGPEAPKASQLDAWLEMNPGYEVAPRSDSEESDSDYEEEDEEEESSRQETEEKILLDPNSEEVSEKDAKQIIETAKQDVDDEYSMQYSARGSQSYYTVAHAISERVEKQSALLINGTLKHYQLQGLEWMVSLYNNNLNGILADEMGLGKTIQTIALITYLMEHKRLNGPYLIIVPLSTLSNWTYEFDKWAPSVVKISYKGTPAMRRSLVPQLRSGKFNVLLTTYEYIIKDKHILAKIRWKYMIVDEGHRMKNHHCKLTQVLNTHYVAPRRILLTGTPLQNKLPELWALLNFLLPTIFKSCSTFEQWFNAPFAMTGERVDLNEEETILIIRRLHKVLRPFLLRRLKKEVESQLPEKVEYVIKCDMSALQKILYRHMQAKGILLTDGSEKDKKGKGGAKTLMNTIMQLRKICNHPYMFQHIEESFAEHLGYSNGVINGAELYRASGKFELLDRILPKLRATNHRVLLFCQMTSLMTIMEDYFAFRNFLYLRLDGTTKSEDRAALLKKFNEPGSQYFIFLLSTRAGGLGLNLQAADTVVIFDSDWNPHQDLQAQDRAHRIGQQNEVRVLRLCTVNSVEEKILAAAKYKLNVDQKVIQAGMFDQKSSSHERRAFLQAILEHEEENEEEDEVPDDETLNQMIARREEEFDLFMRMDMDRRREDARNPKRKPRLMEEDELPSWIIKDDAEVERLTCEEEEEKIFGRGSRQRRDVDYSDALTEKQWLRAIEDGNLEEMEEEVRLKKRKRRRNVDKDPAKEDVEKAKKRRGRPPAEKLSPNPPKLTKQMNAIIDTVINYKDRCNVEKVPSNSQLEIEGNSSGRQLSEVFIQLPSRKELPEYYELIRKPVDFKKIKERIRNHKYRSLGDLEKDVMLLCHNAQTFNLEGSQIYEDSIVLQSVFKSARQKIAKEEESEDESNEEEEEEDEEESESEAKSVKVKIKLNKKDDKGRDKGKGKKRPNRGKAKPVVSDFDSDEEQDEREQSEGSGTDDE

As for `Cc1cc(C(C(=O)N2C[C@H](O)C[C@H]2C(=O)N[C@@H](CN2CCC(c3cccc4c3C(C)(C)c3nc(=O)c5c(Cl)cccc5n3-4)CC2)c2ccc(-c3scnc3C)cc2)C(C)C)on1` (stereo partly drawn) [Compound B154, (2S,4R)-N-((R)-2-(4-(4-chloro-7,7-dimethyl-5-oxo-5,7-dihydroindolo[1,2-a]quinazolin-8-yl)piperidin-1-yl)-1-(4-(4-methylthiazol-5-yl)phenyl)ethyl)-4-hydroxy-1-(3-methyl-2-(3-methylisoxazol-5-yl)butanoyl)pyrrolidine-2-carboxamide], at SMARCA2, the “SMARC A2 HT1080 HiBit Dmax (%)” value was “A (A (>90% degradation))” and the DC50 is less than 100 nM. For the same molecule, at SMARCA4 (6 hrs incubation), the “SMARC A4 HT1080 HiBit Dmax(%)” value was “B (B (70-90% degradation))” and the DC50 is less than 100 nM.
With `Cc1cc(C(C(=O)N2C[C@H](O)C[C@H]2C(=O)N[C@@H](CN2CCC(N3CCC(c4cccc5c4C(C)(C)c4nc(=O)c6c(Cl)cccc6n4-5)CC3)CC2)c2ccc(-c3scnc3C)cc2)C(C)C)on1` (stereo partly drawn) [Compound B155, (2S,4R)-N-((R)-2-(4-(4-chloro-7,7-dimethyl-5-oxo-5,7-dihydroindolo[1,2-a]quinazolin-8-yl)-[1,4'-bipiperidin]-1'-yl)-1-(4-(4-methylthiazol-5-yl)phenyl)ethyl)-4-hydroxy-1-(3-methyl-2-(3-methylisoxazol-5-yl)butanoyl)pyrrolidine-2-carboxamide], the DC50 at SMARCA2 and on SMARCA4 (6 hrs incubation) was less than 100 nM in each case. Further, the Dmax at SMARCA2 was greater than 90%; on SMARCA4 (setting [1]), 70 to 90%.
For the molecule `C[C@H](NC(=O)[C@@H]1C[C@@H](O)CN1C(=O)[C@@H](n1cc([C@H]2CC[C@H](CN3CCC(c4ccc5c(c4)-n4c(nc(=O)c6c(Cl)cccc64)C5(C)C)CC3)CC2)nn1)C(C)(C)C)c1ccc(-c2scnc2C#CCN2CCOCC2)cc1` [Compound B156, (2S,4R)-1-((R)-2-(4-((1r,4R)-4-((4-(4-chloro-7,7-dimethyl-5-oxo-5,7-dihydroindolo[1,2-a]quinazolin-10-yl)piperidin-1-yl)methyl)cyclohexyl)-1H-1,2,3-triazol-1-yl)-3,3-dimethylbutanoyl)-4-hydroxy-N-((S)-1-(4-(4-(3-morpholinoprop-1-yn-1-yl)thiazol-5-yl)phenyl)ethyl)pyrrolidine-2-carboxamide], the DC50 on SMARCA2 and on SMARCA4 (6 hrs incubation) was less than 100 nM each time. The Dmax is greater than 90% at SMARCA2 and 50 to 69% at SMARCA4 (setting [1]).
In the case of `Cc1ncsc1-c1ccc([C@H](CN2CCOCC2)NC(=O)[C@@H]2C[C@@H](O)CN2C(=O)[C@@H](c2cc(O[C@H]3CC[C@H](CN4CCC(c5ccc6c(c5)-n5c(nc(=O)c7c(Cl)cccc75)C6(C)C)CC4)CC3)no2)C(C)C)cc1` [Compound B157, (2S,4R)-1-((R)-2-(3-(((1r,4R)-4-((4-(4-chloro-7,7-dimethyl-5-oxo-5,7-dihydroindolo[1,2-a]quinazolin-10-yl)piperidin-1-yl)methyl)cyclohexyl)oxy)isoxazol-5-yl)-3-methylbutanoyl)-4-hydroxy-N-((R)-1-(4-(4-methylthiazol-5-yl)phenyl)-2-morpholinoethyl)pyrrolidine-2-carboxamide], the DC50 on SMARCA2 and at SMARCA4 (6 hrs incubation) was less than 100 nM each time. In addition, the Dmax was greater than 90% at SMARCA2 and greater than 90% at SMARCA4 (HT-1080, read-out: SMARC A4 HT1080 HiBit Dmax(%), HT1080 CRISPR knock-in cells, 6 hrs incubation).
Consider `Cc1ncsc1-c1ccc([C@H](CN2CCOCC2)NC(=O)[C@@H]2C[C@@H](O)CN2C(=O)[C@@H](c2cc(O[C@H]3CC[C@H](CN4CCC(c5ccc6c(c5)-n5c(nc(=O)c7c(Cl)cccc75)C65CCCCC5)CC4)CC3)no2)C(C)C)cc1` [Compound B158, (2S,4R)-1-((R)-2-(3-(((11,4R)-4-((4-(4′-chloro-5′-oxo-5′H-spiro[cyclohexane-1,7′-indolo[1,2-a]quinazolin]-10′-yl)piperidin-1-yl)methyl)cyclohexyl)oxy)isoxazol-5-yl)-3-methylbutanoyl)-4-hydroxy-N-((R)-1-(4-(4-methylthiazol-5-yl)phenyl)-2-morpholinoethyl)pyrrolidine-2-carboxamide], for which the DC50 at SMARCA2 and at SMARCA4 (6 hrs incubation) was less than 100 nM each time. In addition, the Dmax on SMARCA2 and at SMARCA4 (setting [1]) was greater than 90% each time.
In the case of `Cc1ncsc1-c1ccc([C@H](C)NC(=O)[C@@H]2C[C@@H](O)CN2C(=O)[C@H](C(C)C)n2cc(C3CCC(c4cccc5c4C(C)(C)c4nc(=O)c6c(Cl)cccc6n4-5)CC3)nn2)cc1` (stereo partly drawn) [Compound B161, (2S,4R)-1-((S)-2-(4-(4-(4-chloro-7,7-dimethyl-5-oxo-5,7-dihydroindolo[1,2-a]quinazolin-8-yl)cyclohexyl)-1H-1,2,3-triazol-1-yl)-3-methylbutanoyl)-4-hydroxy-N-((S)-1-(4-(4-methylthiazol-5-yl)phenyl)ethyl)pyrrolidine-2-carboxamide], at SMARCA2, the “SMARC A2 HT1080 HiBit Dmax (%)” value is “A (A (>90% degradation))” and the DC50 is less than 100 nM. In addition, at SMARCA4 (6 hrs incubation), the “SMARC A4 HT1080 HiBit Dmax(%)” value is given as “C (C (50-69% degradation))” and the DC50 was less than 100 nM.
For `Cc1ncsc1-c1ccc([C@H](C)NC(=O)[C@@H]2C[C@@H](O)CN2C(=O)[C@H](C(C)C)n2cc(C3CCC(c4cccc5c4C(C)(C)c4nc(=O)c6c(Cl)cccc6n4-5)CC3)nn2)cc1` (stereo partly drawn) [Compound B162, (2S,4R)-1-((S)-2-(4-(4-(4-chloro-7,7-dimethyl-5-oxo-5,7-dihydroindolo[1,2-a]quinazolin-8-yl)cyclohexyl)-1H-1,2,3-triazol-1-yl)-3-methylbutanoyl)-4-hydroxy-N-((S)-1-(4-(4-methylthiazol-5-yl)phenyl)ethyl)pyrrolidine-2-carboxamide], on SMARCA2, the “SMARC A2 HT1080 HiBit Dmax (%)” value is reported as “A (A (>90% degradation))” and the DC50 is less than 100 nM. For the same molecule, at SMARCA4 (6 hrs incubation), the “SMARC A4 HT1080 HiBit Dmax(%)” value is listed as “C (C (50-69% degradation))” and the DC50 was less than 100 nM.
Regarding `Cc1ncsc1-c1ccc(C(CN2CCOCC2)NC(=O)[C@@H]2C[C@@H](O)CN2C(=O)[C@@H](c2cc(O[C@H]3CC[C@H](CN4CCN(c5ccc6c(c5)-n5c(nc(=O)c7c(Cl)cccc75)C6(C)C)CC4)CC3)no2)C(C)C)cc1` (stereo partly drawn) [Compound B163, (2S,4R)-1-((R)-2-(3-(((11,4R)-4-((4-(4-chloro-7,7-dimethyl-5-oxo-5,7-dihydroindolo[1,2-a]quinazolin-10-yl)piperazin-1-yl)methyl)cyclohexyl)oxy)isoxazol-5-yl)-3-methylbutanoyl)-4-hydroxy-N-((R)-1-(4-(4-methylthiazol-5-yl)phenyl)-2-morpholinoethyl)pyrrolidine-2-carboxamide], the DC50 on SMARCA2 and at SMARCA4 (6 hrs incubation) was less than 100 nM throughout. The Dmax at SMARCA2 and on SMARCA4 (setting [1]) was greater than 90% in each case.
For `Cc1nc(C)c(-c2ccc([C@H](C)NC(=O)[C@@H]3C[C@@H](O)CN3C(=O)[C@@H](n3cc([C@H]4CC[C@H](CN5CCC(c6ccc7c(c6)-n6c(nc(=O)c8c(Cl)cccc86)C7(C)C)CC5)CC4)nn3)C(C)(C)C)cc2)s1` [Compound B164, (2S,4R)-1-((S)-2-(4-((1r,4S)-4-((4-(4-chloro-7,7-dimethyl-5-oxo-5,7-dihydroindolo[1,2-a]quinazolin-10-yl)piperidin-1-yl)methyl)cyclohexyl)-1H-1,2,3-triazol-1-yl)-3,3-dimethylbutanoyl)-N-((S)-1-(4-(2,4-dimethylthiazol-5-yl)phenyl)ethyl)-4-hydroxypyrrolidine-2-carboxamide], the DC50 at SMARCA2 and at SMARCA4 (6 hrs incubation) was less than 100 nM in each case. Besides, the Dmax is greater than 90% on SMARCA2 and 70 to 90% at SMARCA4 (setting [1]).
